Structures can show the parent of a compound that is named as a salt. Where two headings read alike, the source gives them in different places.

The experiment deals with T1, human cannabinoid CB2 receptor (Homo sapiens, UniProt P34972).
T1 construct: expressed in transfected cells; host or cells: Saccharomyces cerevisiae strain MMY23 (cassette integrated at the ura3 locus, GPD promoter)
In words: Cannabinoid CB2 receptor agonist activity in yeast cells (FDGlu fluorescence). Type of experiment: cell-based. As to the method: The cannabinoid CB2 receptor agonist activity of compounds of formula (I) was determined in accordance with the following experimental method.
Yeast (Saccharomyces cerevisiae) cells expressing the human cannabinoid CB2 receptor were generated by integration of an expression cassette into the ura3 chromosomal locus of yeast strain MMY23. This cassette consisted of DNA sequence encoding the human CB2 receptor flanked by the yeast GPD promoter to the 5′ end of CB2 and a yeast transcriptional terminator sequence to the 3′ end of CB2. MMY23 expresses a yeast/mammalian chimeric G-protein alpha subunit in which the C-terminal 5 amino acids of Gpa1 are replaced with the C-terminal 5 amino acids of human Gαi1/23 (as described in Brown et al. (2000), Yeast 16:11-22). Cells were grown at 30° C. in liquid Synthetic Complete (SC) yeast media (Guthrie and Fink (1991), Methods in Enzymology, Vol. 194) lacking uracil, tryptophan, adenine and leucine to late logarithmic phase (approximately 6 OD600/ml).
Agonists were prepared as 10 mM solutions in DMSO. EC50 values (the concentration required to produce 50% maximal response) were estimated using 4 fold dilutions of between 3- and 5-fold (BiomekFX, Beckman) into DMSO. Agonist solutions in DMSO (1% final assay volume) were transferred into black microtitre plates from NUNC Greiner (384-well). Cells were suspended at a density of 0.2 OD600/ml in SC media lacking histidine, uracil, tryptophan, adenine and leucine and supplemented with 10 mM 3-aminotriazole, 0.1 M sodium phosphate pH 7.0, and 120 μM fluorescein di-β-D-glucopyranoside (FDGlu). This mixture (50 ul per well) was added to agonist in the assay plates (Multidrop 384, Labsystems). After incubation at 30° C. for 24 hours, fluorescence resulting from degradation of FDGlu to fluorescein due to exoglucanase, an endogenous yeast enzyme produced during agonist-stimulated cell growth, was determined using a fluorescence microtitre plate reader (Tecan Spectrofluor or LJL Analyst excitation wavelength: 485 nm; emission wavelength: 535 nm). Fluorescence was plotted against compound concentration and iteratively curve fitted using a four parameter fit to generate a concentration effect value.
Efficacy (Emax) was calculated from the equation
Emax=Max[compound X]−Min[compound X]/Max[HU210]−Min[HU210]×100%
where Max[compound X] and Min[compound X] are the fitted maximum and minimum respectively from the concentration effect curve for compound X, and Max[HU210] and Min[HU210] are the fitted maximum and minimum respectively from the concentration effect curve for (6aR, 10aR)-3-(1,1′-Dimethylheptyl)-6a,7,10,10a-tetrahydro-1-hydroxy-6,6-dimethyl-6H-dibenzo[b,d]pyran-9-methanol (HU210; available from Tocris). Equieffective molar ratio (EMR) values were calculated from the equation
Where EC50 [compound X] is the EC50 of compound X and EC50 [HU210] is the EC50 of HU210.
pEC50 is the negative log of the EC50.

Setting [1] is: agonist activity, Saccharomyces cerevisiae cells expressing the human CB2 receptor, 24 hours at 30° C., read-out: pEC50 at the CB2 receptor (converted).

T1 sequence (P34972 whole entry): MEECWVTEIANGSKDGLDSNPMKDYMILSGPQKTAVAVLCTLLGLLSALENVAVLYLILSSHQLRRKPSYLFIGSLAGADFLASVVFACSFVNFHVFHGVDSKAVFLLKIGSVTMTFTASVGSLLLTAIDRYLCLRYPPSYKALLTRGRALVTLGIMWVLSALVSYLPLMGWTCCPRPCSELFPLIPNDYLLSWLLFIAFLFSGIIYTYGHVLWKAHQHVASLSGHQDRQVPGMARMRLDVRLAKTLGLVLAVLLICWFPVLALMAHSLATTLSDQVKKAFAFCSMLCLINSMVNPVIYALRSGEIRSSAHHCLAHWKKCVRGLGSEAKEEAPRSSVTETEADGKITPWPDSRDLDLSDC

The compound `O=S(=O)(c1ccc(Cl)cc1)c1cnc2c(NCC3CCOCC3)cccc2c1` [Example E3, 3-[(4-Chlorophenyl)sulfonyl]-N-(tetrahydro-2H-pyran-4-ylmethyl)-8-quinolinamine] yielded an EC50 below 1000 nM. Consider `O=S(=O)(c1ccccc1)c1cnc2c(NCc3cccnc3)cccc2c1` [Example E4, 3-(Phenylsulfonyl)-N-(3-pyridinylmethyl)-8-quinolinamine], for which the EC50 under setting [1] was below 1000 nM. Same read-out and setting: then `Cc1cc(CCNc2cccc3cc(S(=O)(=O)c4ccccc4)cnc23)ccn1` [Example E7, N-[2-(2-methyl-4-pyridinyl)ethyl]-3-(phenylsulfonyl)-8-quinolinamine hydrochloride], with below 1000 nM; and `O=S(=O)(c1ccccc1)c1cnc2c(NCCc3ccncc3)cccc2c1` [Example E5, 3-(Phenylsulfonyl)-N-[2-(4-pyridinyl)ethyl]-8-quinolinamine hydrochloride], with below 1000 nM. Turning to `O=S(=O)(c1ccccc1)c1cnc2c(NCC3CCOCC3)cccc2c1` [Example E1, 3-(Phenylsulfonyl)-N-(tetrahydro-2H-pyran-4-ylmethyl)-8-quinolinamine], the EC50 under setting [1] was below 1000 nM. On the same count and under the same terms, under `O=S(=O)(c1ccccc1)c1cnc2c(NCCC3CCOCC3)cccc2c1` [Example E6, 3-(Phenylsulfonyl)-N-[2-(tetrahydro-2H-pyran-4-yl)ethyl]-8-quinolinamine hydrochloride] stands below 1000 nM. The same measure, in the same setting: then `O=S(=O)(c1ccccc1)c1cnc2c(NCCN3CCOCC3)cccc2c1` [Example E2, N-[2-(4-Morpholinyl)ethyl]-3-(phenylsulfonyl)-8-quinolinamine hydrochloride], with below 10000 nM.

The values are drawn from patent publication US20080249092A1, “Novel Quinoline Compounds Capable Of Binding At The Cb2 Receptor” (priority 2006, published 2008).
